{"source": "patent US20210187488A1", "about": "“A METHOD OF SYNTHESISING A PT(II) COMPLEX; A PT(II) COMPLEX; USE OF SUCH A COMPLEX AS A PHOTOACTIVATABLE CATALYST IN A HYDROSILYLATION REACTION” (JOHNSON MATTHEY PUBLIC LIMITED COMPANY, priority 2017, published 2021)", "key": {"[1]": {"experiment": "Qualitative solubility observations", "format": "physicochemical", "procedure": "Stirring was continued at room temperature for 2 hours. […] The precipitate was washed with water and diethylether.\nAn excess of salicylaldehyde (2 mL, 2.28 g, 18.62 mmol) in EtOH (20 mL) was added and the reaction mixture was heated at 73° C. overnight.\nFive different samples were studied: • 1. Vinyl-terminated polydimethylsiloxane 100 cSt • 2."}, "[2]": {"experiment": "Solubility in various solvents, Pt content by ICP-AES", "format": "physicochemical", "details": "10 mg in 1 mL, room temperature, 3 h, filtered", "procedure": "The solubility of the product of Example 3 was tested in various solvents.\nIn each case, 10 mg of the complex was stirred in 1 mL of each solvent at room temperature for three hours. The solvent was then filtered. One hundred fold dilutions of the samples into methoxypropanol were then carried out and Pt content was determined by ICP-AES using a Spectro Ciros Vision ICP-OES. Yttrium was employed as an internal standard at a concentration of 5 ppm."}, "[3]": {"experiment": "Catalytic activity: time until gelling of siloxane composition after 60 s UV irradiation or in the dark", "details": "for Gelling time: 60 s UV", "procedure": "The product of Example 3 was tested for catalytic activity.\n5 mg of the product was dissolved in 1 mL dichloromethane to provide a solution (‘Solution A’).\nThe following ingredients were added to a UV-grade plastic cuvette: • vinyl terminated polydimethyl siloxane 100 cSt DMS V21 (2g); • (45-55% methylhydrosiloxane)dimethylsiloxane copolymer 10-15 cSt HMS-501 (0.108 mL); • Solution A (25 μL).\nThe contents of the cuvette were stirred briefly with a spatula to ensure thorough mixing and a 10 mm magnetic flea was added, before sealing with parafilm.\nThe cuvette was placed in a UV-lamp box. The positioning of samples in the box was kept the same throughout testing (154 mm from ground to top of cuvette; 114 mm between end of housing and front of cuvette).\nA 300 W ozone-free Xenon lamp was used (visible to 300 nm). A water-cooled filter removes some of the visible spectrum.\nThe stirrer speed was set to the 12 o'clock position and the lamp was switched on for 60 seconds only. The time taken from the switching on of the lamp to the stirrer no longer being able to complete a turn was noted as a measure of activity.\nResults are provided in the Table below. ‘Irradiated’ indicates samples exposed to the 60 s UV radiation. ‘Dark’ indicates samples left in darkness without any irradiation.\n(§1) All other aspects of the test were the same as Example 16. The results reflect gelling time after the 60 s UV irradiation.\nThe testing was done as in Example 16, except that in the initial step the following four solutions were prepared:\nDifferent amounts of the respective solutions, as shown in the Tables below, were added to the cuvette but all other aspects of the test were the same as Example 16.\nas §1"}, "[4]": {"experiment": "Stability in dichloromethane during crystal growth", "format": "physicochemical", "details": "dichloromethane (DCM/hexane crystal growth, one week)", "text": "The following different methods were attempted in order to provide suitable crystals for testing. • 1. Growth in acetone/water medium. […] Growth in DCM/hexane. This formed two distinct layers with slow mixing occurring at the interface. […] Growth in chloroform/hexane. This formed two distinct layers with slow mixing occurring at the interface. Slightly larger crystals were formed, but still too small. It took longer for the product to turn brown. • 4. Growth in chloroform: The product was dissolved in chloroform with heating, and immediately filtered before being stored in the freezer. Needle like crystals were formed • 5. Growth in chloroform/hexane in freezer. Needle like crystals were formed"}, "[5]": {"experiment": "Thermogravimetric analysis (thermal stability)", "format": "physicochemical", "details": "TGA", "text": "(which is the boiling point for salicylaldehyde). Above this temperature the ligand is lost, leaving behind the platinum metal."}, "[6]": {"experiment": "Catalytic activity of comparative products in gelling of a siloxane polymer", "procedure": "The brown solution gave an orange oil which was tested for catalytic activity in gelling of a siloxane polymer.\nA 16.13 wt % aqueous solution of Pt(IV) nitrate (2.624 g, 2.17 mmol) was added to deionised water (50 mL) and a mixture of salicylaldehyde (2.45 mL, 2.8 g, 22.8 mmol) and NaHCO3 (0.765 g, 9.12 mmol) in EtOH (15 mL) was then added. The reaction mixture gave off gas and produced an orange precipitate. Stirring was continued at room temperature for 2 hours. The reaction mixture was then filtered to give an orange precipitate and an orange solution. The precipitate was washed with water and diethylether. […] The product was tested for catalytic activity but none was found. […] The major product appeared to be Pt^IV(HCO3)4."}, "[7]": {"details": "ECHA (European Chemicals Agency) website; cited from earlier work"}, "[8]": {"details": "25 μL of toluene solution, 1.77 mM"}, "[9]": {"details": "50 μL of toluene solution, 1.77 mM"}, "[10]": {"details": "75 μL of toluene solution, 1.77 mM"}, "[11]": {"details": "200 μL of toluene solution, 1.77 mM"}, "[12]": {"details": "360 μL of toluene solution, 1.77 mM"}}, "data": [{"molecule": "Pt(sal)2 [Example 9]", "values": [{"measurement": "Solubility", "setting": "[1]; MeOH (washing)", "value": "only very slightly soluble"}]}, {"molecule": "Pt(sal)2 [Example 3]", "values": [{"measurement": "Pt concentration", "setting": "[2]; Acetone:MeCN (1:1)", "value": 698, "unit": "mg/L"}, {"measurement": "Pt concentration", "setting": "[2]; Acetone", "value": 646, "unit": "mg/L"}, {"measurement": "Pt concentration", "setting": "[2]; Chloroform", "value": 3260, "unit": "mg/L"}, {"measurement": "Pt concentration", "setting": "[2]; EtOH", "value": 103, "unit": "mg/L"}, {"measurement": "Pt concentration", "setting": "[2]; IPA", "value": 43.4, "unit": "mg/L"}, {"measurement": "Pt concentration", "setting": "[2]; MIBK", "value": 369, "unit": "mg/L"}, {"measurement": "Pt concentration", "setting": "[2]; MeCN:DMSO (80:20)", "value": 1220, "unit": "mg/L"}, {"measurement": "Pt concentration", "setting": "[2]; MeCN", "value": 588, "unit": "mg/L"}, {"measurement": "Pt concentration", "setting": "[2]; Toluene", "value": 346, "unit": "mg/L"}, {"measurement": "Pt concentration", "setting": "[2]; Water:MeCN (1:1)", "value": 167, "unit": "mg/L"}, {"measurement": "Pt concentration", "setting": "[2]; Water", "value": 42.1, "unit": "mg/L"}, {"measurement": "Time until gelling", "setting": "[3]; dark, no irradiation, 25 μL of 5 mg in 1 mL dichloromethane", "value": "13,500 s"}, {"measurement": "Time until gelling", "setting": "[3]; irradiated (60 s UV), 25 μL of 5 mg in 1 mL dichloromethane", "value": 165, "unit": "s"}, {"measurement": "Stability in solvent", "setting": "[4]", "value": "not completely stable"}, {"measurement": "Thermal stability, stable up to", "setting": "[5]", "value": "up to 200 °C"}]}, {"molecule": "Pt(sal)2 [Solution D]", "values": [{"measurement": "Gelling time", "setting": "[3]; [8]", "value": 1263, "unit": "s"}, {"measurement": "Gelling time", "setting": "[3]; [9]", "value": 627, "unit": "s"}, {"measurement": "Gelling time", "setting": "[3]; [10]", "value": 415, "unit": "s"}, {"measurement": "Gelling time", "setting": "[3]; [11]", "value": 231, "unit": "s"}, {"measurement": "Gelling time", "setting": "[3]; [12]", "value": 126, "unit": "s"}]}, {"molecule": "Pt(sal)2 [Example 7]", "values": [{"measurement": "Time until gelling", "setting": "[3]; after 60 s UV irradiation, 11 mg in 1 mL dichloromethane", "value": 208, "unit": "s"}]}, {"molecule": "O=C([O-])O.O=C([O-])O.O=C([O-])O.O=C([O-])O.[Pt+4]", "note": "[Comparative Example 6, Pt^IV(HCO3)4]", "values": [{"measurement": "Catalytic activity", "setting": "[6]", "value": "none"}]}, {"molecule": "CC(=O)/C=C(/C)O.CC(=O)/C=C(/C)O.[Pt]", "note": "[Solution C, Pt(acac)2]", "values": [{"measurement": "Gelling time", "setting": "[3]; 25 μL of DCM solution, 14.4 mM", "value": 1234, "unit": "s"}, {"measurement": "Gelling time", "setting": "[3]; 50 μL of DCM solution, 14.4 mM", "value": 719, "unit": "s"}, {"measurement": "Gelling time", "setting": "[3]; 75 μL of DCM solution, 14.4 mM", "value": 506, "unit": "s"}, {"measurement": "Gelling time", "setting": "[3]; 100 μL of DCM solution, 14.4 mM", "value": 535, "unit": "s"}]}, {"molecule": "CC1=[C-]CC=C1.[CH3-].[CH3-].[CH3-].[Pt+4]", "note": "[(MeCp)PtMe3]", "values": [{"measurement": "Hazard classification", "setting": "[7]", "value": "fatal if swallowed, fatal in contact with skin, very toxic to aquatic life, causes serious eye irritation, may cause an allergic skin reaction, causes skin irritation and may cause respiratory irritation"}]}, {"molecule": "CC(=O)/C=C(/C)O.CC(=O)/C=C(/C)O.[Pt]", "note": "[Solution E, Pt(acac)2]", "values": [{"measurement": "Gelling time", "setting": "[3]; [8]", "value": 3544, "unit": "s"}, {"measurement": "Gelling time", "setting": "[3]; [9]", "value": 1350, "unit": "s"}, {"measurement": "Gelling time", "setting": "[3]; [10]", "value": 938, "unit": "s"}, {"measurement": "Gelling time", "setting": "[3]; 100 μL of toluene solution, 1.77 mM", "value": 793, "unit": "s"}, {"measurement": "Gelling time", "setting": "[3]; [11]", "value": 551, "unit": "s"}, {"measurement": "Gelling time", "setting": "[3]; [12]", "value": 486, "unit": "s"}]}, {"molecule": "Pt(sal)2 [Example 1]", "values": [{"measurement": "Solubility (note on sample)", "setting": "[1]; 1 mg/mL in acetone", "value": "saturated solution, prone to some precipitation"}, {"measurement": "Solubility (note on sample)", "setting": "[1]; 1 mg/mL in vinyl-terminated polydimethylsiloxane", "value": "poor solubility, solution very cloudy and prone to precipitation"}]}]}
